Laboratory results reported in ChEMBL document CHEMBL4507320, “Data for DCP probe NVS-MALT1” (2021).

Tests used:
[1] = target: Serine/threonine-protein kinase TAO3 (Homo sapiens) (UniProt Q9H2K8); details: Compound concentration 1000.0 nM
[2] = target: High affinity nerve growth factor receptor (Homo sapiens) (UniProt P04629); details: Compound concentration 1000.0 nM
[3] = target: Ephrin type-B receptor 6 (Homo sapiens) (UniProt O15197); details: Compound concentration 1000.0 nM
[4] = target: Serine/threonine-protein kinase PAK 1 (Homo sapiens) (UniProt Q13153); details: Compound concentration 1000.0 nM
[5] = target: Homeodomain-interacting protein kinase 1 (Homo sapiens) (UniProt Q86Z02); details: Compound concentration 1000.0 nM
[6] = target: Cyclin-dependent kinase 4 (Homo sapiens) (UniProt P11802); details: Compound concentration 1000.0 nM
[7] = target: D(2) dopamine receptor (Homo sapiens) (UniProt P14416); details: Compound concentration 10.0 uM
[8] = target: Mitogen-activated protein kinase kinase kinase 3 (Homo sapiens) (UniProt Q99759); details: Compound concentration 1000.0 nM
[9] = target: Protein kinase C epsilon type (Homo sapiens) (UniProt Q02156); details: Compound concentration 1000.0 nM
[10] = target: Dual specificity tyrosine-phosphorylation-regulated kinase 1A (Homo sapiens) (UniProt Q13627); details: Compound concentration 1000.0 nM
[11] = target: Mitogen-activated protein kinase 3 (Homo sapiens) (UniProt P27361); details: Compound concentration 1000.0 nM
[12] = target: Death-associated protein kinase 3 (Homo sapiens) (UniProt O43293); details: Compound concentration 1000.0 nM
[13] = target: Cyclin-dependent kinase 5 (Homo sapiens) (UniProt Q00535); details: Compound concentration 1000.0 nM
[14] = target: Dual specificity protein kinase CLK2 (Homo sapiens) (UniProt P49760); details: Compound concentration 1000.0 nM
[15] = target: Serine/threonine-protein kinase 32C (Homo sapiens) (UniProt Q86UX6); details: Compound concentration 1000.0 nM
[16] = target: Serine/threonine-protein kinase DCLK1 (Homo sapiens) (UniProt O15075); details: Compound concentration 1000.0 nM
[17] = target: Serine/threonine-protein kinase PAK 4 (Homo sapiens) (UniProt O96013); details: Compound concentration 1000.0 nM
[18] = system: Phosphatidylinositol 4,5-bisphosphate 3-kinase catalytic subunit alpha isoform (Homo sapiens), P42336 [E545A]; details: Compound concentration 1000.0 nM
[19] = target: RAC-alpha serine/threonine-protein kinase (Homo sapiens) (UniProt P31749); details: Compound concentration 1000.0 nM
[20] = target: Casein kinase I isoform epsilon (Homo sapiens) (UniProt P49674); details: Compound concentration 1000.0 nM
[21] = target: Serine/threonine-protein kinase Nek3 (Homo sapiens) (UniProt P51956); details: Compound concentration 1000.0 nM
[22] = target: Tyrosine-protein kinase ABL1 (Homo sapiens) (UniProt P00519); details: Compound concentration 1000.0 nM
[23] = system: Receptor-type tyrosine-protein kinase FLT3 (Homo sapiens), P36888 [N841I]; details: Compound concentration 1000.0 nM
[24] = target: Mast/stem cell growth factor receptor Kit (Homo sapiens) (UniProt P10721); details: Compound concentration 1000.0 nM
[25] = target: Ephrin type-A receptor 4 (Homo sapiens) (UniProt P54764); details: Compound concentration 1000.0 nM
[26] = target: cAMP-dependent protein kinase catalytic subunit PRKX (Homo sapiens) (UniProt P51817); details: Compound concentration 1000.0 nM
[27] = target: Proto-oncogene tyrosine-protein kinase receptor Ret (Homo sapiens) (UniProt P07949); details: Compound concentration 1000.0 nM
[28] = target: MAP kinase-interacting serine/threonine-protein kinase 2 (Homo sapiens) (UniProt Q9HBH9); details: Compound concentration 1000.0 nM
[29] = target: Mitogen-activated protein kinase kinase kinase kinase 4 (Homo sapiens) (UniProt O95819); details: Compound concentration 1000.0 nM
[30] = target: Tyrosine-protein kinase ABL1 (Homo sapiens) (UniProt P00519); details: Compound concentration 1000.0 nM; remark: listed apart in the source
[31] = target: Ephrin type-B receptor 1 (Homo sapiens) (UniProt P54762); details: Compound concentration 1000.0 nM
[32] = target: Serine/threonine-protein kinase 4 (Homo sapiens) (UniProt Q13043); details: Compound concentration 1000.0 nM
[33] = target: Muscarinic acetylcholine receptor M4 (Homo sapiens) (UniProt P08173); details: Compound concentration 10.0 uM
[34] = target: Serine/threonine-protein kinase tousled-like 2 (Homo sapiens) (UniProt Q86UE8); details: Compound concentration 1000.0 nM
[35] = system: Mast/stem cell growth factor receptor Kit (Homo sapiens), P10721 [D816H]; details: Compound concentration 1000.0 nM
[36] = target: Serine/threonine-protein kinase PLK1 (Homo sapiens) (UniProt P53350); details: Compound concentration 1000.0 nM
[37] = target: Mitogen-activated protein kinase kinase kinase 1 (Homo sapiens) (UniProt Q13233); details: Compound concentration 1000.0 nM
[38] = target: Serine/threonine-protein kinase PRP4 homolog (Homo sapiens) (UniProt Q13523); details: Compound concentration 1000.0 nM
[39] = target: Muscarinic acetylcholine receptor M3 (Homo sapiens) (UniProt P20309); details: Compound concentration 10.0 uM
[40] = target: Activin receptor type-1 (Homo sapiens) (UniProt Q04771); details: Compound concentration 1000.0 nM
[41] = target: Mitogen-activated protein kinase 12 (Homo sapiens) (UniProt P53778); details: Compound concentration 1000.0 nM
[42] = target: Calcium/calmodulin-dependent protein kinase type 1B (Homo sapiens) (UniProt Q6P2M8); details: Compound concentration 1000.0 nM
[43] = target: Tyrosine-protein kinase JAK3 (Homo sapiens) (UniProt P52333); details: Compound concentration 1000.0 nM
[44] = target: Mitogen-activated protein kinase 6 (Homo sapiens) (UniProt Q16659); details: Compound concentration 1000.0 nM

Chain of Tyrosine-protein kinase ABL1 (Homo sapiens) (P00519 whole entry): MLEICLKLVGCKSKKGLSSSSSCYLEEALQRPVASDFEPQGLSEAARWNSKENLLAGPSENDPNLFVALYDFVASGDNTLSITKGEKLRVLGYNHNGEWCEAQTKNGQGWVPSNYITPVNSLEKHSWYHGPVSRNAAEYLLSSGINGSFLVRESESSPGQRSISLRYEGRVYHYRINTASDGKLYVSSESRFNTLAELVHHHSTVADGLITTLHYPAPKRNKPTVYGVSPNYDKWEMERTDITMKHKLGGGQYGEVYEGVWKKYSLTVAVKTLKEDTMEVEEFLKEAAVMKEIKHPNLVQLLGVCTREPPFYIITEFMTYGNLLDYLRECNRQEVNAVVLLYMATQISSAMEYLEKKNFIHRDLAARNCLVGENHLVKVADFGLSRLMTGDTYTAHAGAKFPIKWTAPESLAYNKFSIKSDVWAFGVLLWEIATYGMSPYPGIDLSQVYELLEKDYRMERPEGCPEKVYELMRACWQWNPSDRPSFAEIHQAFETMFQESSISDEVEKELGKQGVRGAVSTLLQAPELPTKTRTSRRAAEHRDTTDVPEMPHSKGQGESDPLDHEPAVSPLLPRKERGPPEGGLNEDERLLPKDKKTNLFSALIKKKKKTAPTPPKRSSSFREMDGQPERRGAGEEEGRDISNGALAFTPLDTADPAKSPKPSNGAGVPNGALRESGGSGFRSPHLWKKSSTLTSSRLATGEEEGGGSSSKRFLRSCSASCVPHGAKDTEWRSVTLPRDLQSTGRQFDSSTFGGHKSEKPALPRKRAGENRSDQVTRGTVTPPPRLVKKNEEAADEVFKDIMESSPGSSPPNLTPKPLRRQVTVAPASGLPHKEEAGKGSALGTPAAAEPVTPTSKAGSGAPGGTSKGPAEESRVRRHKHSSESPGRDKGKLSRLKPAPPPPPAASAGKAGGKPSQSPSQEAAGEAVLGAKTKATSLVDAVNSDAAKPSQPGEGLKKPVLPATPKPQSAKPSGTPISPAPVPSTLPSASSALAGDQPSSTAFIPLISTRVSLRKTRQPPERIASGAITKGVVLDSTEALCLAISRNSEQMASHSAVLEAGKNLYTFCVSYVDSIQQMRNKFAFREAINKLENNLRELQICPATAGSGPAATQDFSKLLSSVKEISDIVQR
Chain of D(2) dopamine receptor (Homo sapiens) (P14416 whole entry): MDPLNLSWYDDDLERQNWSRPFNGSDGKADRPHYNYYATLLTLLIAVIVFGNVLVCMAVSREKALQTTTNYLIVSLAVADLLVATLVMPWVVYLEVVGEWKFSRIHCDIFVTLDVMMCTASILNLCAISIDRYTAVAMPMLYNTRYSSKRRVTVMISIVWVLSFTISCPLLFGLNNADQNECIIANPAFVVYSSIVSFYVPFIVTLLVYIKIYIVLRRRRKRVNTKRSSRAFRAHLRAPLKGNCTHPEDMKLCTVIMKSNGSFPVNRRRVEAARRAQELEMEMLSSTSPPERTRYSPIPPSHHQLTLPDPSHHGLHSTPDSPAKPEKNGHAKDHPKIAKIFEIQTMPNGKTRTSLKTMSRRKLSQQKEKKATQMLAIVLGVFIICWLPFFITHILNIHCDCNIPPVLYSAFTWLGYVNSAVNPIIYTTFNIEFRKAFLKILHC
Chain of RAC-alpha serine/threonine-protein kinase (Homo sapiens) (P31749 whole entry, canonical isoform): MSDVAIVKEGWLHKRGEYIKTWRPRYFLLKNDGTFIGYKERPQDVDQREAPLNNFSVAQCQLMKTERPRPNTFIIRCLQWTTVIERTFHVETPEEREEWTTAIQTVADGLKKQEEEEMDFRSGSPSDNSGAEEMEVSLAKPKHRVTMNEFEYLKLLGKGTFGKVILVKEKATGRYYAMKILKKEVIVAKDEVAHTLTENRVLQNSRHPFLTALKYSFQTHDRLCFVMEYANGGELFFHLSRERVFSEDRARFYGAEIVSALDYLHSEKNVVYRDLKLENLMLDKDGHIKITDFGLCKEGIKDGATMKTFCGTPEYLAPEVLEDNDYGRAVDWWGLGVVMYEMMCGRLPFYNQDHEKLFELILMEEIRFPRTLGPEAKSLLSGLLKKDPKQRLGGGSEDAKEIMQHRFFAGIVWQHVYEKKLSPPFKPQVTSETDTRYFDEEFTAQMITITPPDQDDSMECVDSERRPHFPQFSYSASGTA
Chain of Ephrin type-B receptor 1 (Homo sapiens) (P54762 whole entry): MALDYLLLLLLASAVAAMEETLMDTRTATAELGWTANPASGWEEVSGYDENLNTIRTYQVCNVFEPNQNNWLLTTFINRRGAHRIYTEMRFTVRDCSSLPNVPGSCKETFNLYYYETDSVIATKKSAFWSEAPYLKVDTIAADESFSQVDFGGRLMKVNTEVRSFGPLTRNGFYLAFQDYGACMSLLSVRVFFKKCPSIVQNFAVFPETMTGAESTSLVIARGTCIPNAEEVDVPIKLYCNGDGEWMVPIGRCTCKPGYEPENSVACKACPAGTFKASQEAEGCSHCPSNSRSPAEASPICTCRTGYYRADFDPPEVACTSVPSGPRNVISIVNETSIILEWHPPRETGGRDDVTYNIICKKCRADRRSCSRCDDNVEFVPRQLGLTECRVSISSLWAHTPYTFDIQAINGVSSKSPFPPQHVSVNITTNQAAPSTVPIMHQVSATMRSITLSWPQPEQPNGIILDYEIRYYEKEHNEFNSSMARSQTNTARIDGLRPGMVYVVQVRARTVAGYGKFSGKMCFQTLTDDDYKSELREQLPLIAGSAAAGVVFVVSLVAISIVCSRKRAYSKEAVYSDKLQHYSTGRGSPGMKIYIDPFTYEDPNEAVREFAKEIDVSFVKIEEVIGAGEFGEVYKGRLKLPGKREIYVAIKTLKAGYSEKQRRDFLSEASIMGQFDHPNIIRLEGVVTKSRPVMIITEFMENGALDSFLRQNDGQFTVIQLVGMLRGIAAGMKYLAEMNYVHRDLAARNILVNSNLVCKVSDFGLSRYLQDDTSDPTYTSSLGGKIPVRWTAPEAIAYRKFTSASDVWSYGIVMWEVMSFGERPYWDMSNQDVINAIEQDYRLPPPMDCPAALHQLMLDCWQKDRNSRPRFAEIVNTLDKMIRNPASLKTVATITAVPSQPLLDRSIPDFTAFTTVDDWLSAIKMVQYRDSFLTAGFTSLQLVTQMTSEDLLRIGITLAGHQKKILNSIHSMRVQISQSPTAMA
Chain of Mitogen-activated protein kinase 3 (Homo sapiens) (P27361 whole entry): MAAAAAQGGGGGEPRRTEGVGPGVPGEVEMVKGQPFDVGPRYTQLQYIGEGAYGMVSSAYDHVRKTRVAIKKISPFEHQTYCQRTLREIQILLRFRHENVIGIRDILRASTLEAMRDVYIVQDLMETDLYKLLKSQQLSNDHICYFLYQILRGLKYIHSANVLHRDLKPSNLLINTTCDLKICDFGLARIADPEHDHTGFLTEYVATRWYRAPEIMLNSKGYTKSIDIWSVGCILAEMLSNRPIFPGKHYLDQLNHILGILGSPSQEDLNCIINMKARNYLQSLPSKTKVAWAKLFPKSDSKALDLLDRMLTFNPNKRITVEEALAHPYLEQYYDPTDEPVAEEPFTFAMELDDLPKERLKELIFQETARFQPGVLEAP
Chain of Muscarinic acetylcholine receptor M4 (Homo sapiens) (P08173 whole entry): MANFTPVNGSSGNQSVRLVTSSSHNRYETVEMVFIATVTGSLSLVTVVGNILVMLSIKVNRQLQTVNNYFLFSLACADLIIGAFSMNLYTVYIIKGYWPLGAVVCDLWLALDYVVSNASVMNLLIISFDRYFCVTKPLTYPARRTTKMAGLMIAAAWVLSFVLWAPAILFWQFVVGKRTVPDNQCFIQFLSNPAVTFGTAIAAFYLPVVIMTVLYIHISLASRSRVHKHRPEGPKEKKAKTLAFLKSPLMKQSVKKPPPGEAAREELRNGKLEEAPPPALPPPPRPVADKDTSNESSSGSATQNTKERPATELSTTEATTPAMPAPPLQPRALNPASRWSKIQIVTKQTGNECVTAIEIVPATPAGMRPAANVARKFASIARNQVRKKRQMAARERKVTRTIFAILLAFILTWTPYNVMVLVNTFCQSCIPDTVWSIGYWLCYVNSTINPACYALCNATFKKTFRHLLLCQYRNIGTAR
Chain of Serine/threonine-protein kinase 32C (Homo sapiens) (Q86UX6 whole entry): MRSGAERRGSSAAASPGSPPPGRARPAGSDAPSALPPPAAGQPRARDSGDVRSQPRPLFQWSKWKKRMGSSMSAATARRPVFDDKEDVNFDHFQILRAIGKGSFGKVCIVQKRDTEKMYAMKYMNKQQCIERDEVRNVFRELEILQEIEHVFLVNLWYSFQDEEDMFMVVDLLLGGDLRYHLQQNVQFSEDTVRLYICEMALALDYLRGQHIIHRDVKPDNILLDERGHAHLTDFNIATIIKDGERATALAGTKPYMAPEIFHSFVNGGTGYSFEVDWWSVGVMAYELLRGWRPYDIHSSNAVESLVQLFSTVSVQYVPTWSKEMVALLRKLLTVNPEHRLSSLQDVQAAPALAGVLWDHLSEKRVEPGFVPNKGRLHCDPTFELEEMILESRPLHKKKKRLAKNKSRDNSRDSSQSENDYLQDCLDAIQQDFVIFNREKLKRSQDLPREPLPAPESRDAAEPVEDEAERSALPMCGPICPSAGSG
Chain of Mitogen-activated protein kinase 12 (Homo sapiens) (P53778 whole entry): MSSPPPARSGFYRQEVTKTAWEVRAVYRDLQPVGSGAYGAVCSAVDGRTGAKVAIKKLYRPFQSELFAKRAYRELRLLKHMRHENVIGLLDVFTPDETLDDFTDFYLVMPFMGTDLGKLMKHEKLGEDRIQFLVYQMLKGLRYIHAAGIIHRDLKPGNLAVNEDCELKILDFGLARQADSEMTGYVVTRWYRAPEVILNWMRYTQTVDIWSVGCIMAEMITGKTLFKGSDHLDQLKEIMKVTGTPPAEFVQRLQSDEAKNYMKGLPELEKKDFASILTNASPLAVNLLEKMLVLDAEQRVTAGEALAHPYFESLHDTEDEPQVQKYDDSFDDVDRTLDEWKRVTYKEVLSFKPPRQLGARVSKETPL

CO[C@@H](C)c1c(Nc2ccc([C@@H](N(C)C(=O)C3CCS(=O)(=O)CC3)C(F)(F)F)cc2)cnc2cc(Cl)nn12 [NVS-MALT1-C]
residual activity [1]: 100% | residual activity [2]: 93% | residual activity [3]: 100% | residual activity [4]: 83% | residual activity [5]: 56% | residual activity [6]: 100% | inhibition [7]: -4.3% | residual activity [8]: 100% | residual activity [9]: 94% | residual activity [10]: 92% | residual activity [11]: 86% | residual activity [12]: 47% | residual activity [13]: 99% | residual activity [14]: 100% | residual activity [15]: 82% | residual activity [16]: 75% | residual activity [17]: 100% | residual activity [18]: 77% | residual activity [19]: 89% | residual activity [20]: 59% | residual activity [21]: 61% | residual activity [22]: 59% | residual activity [23]: 57% | residual activity [24]: 85% | residual activity [25]: 100% | residual activity [26]: 84% | residual activity [27]: 91% | residual activity [28]: 85% | residual activity [29]: 100% | residual activity [30]: 74% | residual activity [31]: 92% | residual activity [32]: 100% | inhibition [33]: 21.1% | residual activity [34]: 100% | residual activity [35]: 100% | residual activity [36]: 87% | residual activity [37]: 96% | residual activity [38]: 91% | inhibition [39]: -2.58% | residual activity [40]: 85% | residual activity [41]: 92% | residual activity [42]: 100% | residual activity [43]: 98% | residual activity [44]: 91%

CO[C@@H](C)c1c(Nc2ccc([C@H](N(C)C(=O)C3CCS(=O)(=O)CC3)C(F)(F)F)cc2)cnc2cc(Cl)nn12 [NVS-MALT1]
residual activity [1]: 100% | residual activity [2]: 80% | residual activity [3]: 100% | residual activity [4]: 74% | residual activity [5]: 40% | residual activity [6]: 100% | inhibition [7]: 4.1% | residual activity [8]: 73% | residual activity [9]: 100% | residual activity [10]: 75% | residual activity [11]: 100% | residual activity [12]: 91% | residual activity [13]: 96% | residual activity [14]: 100% | residual activity [15]: 99% | residual activity [16]: 72% | residual activity [17]: 95% | residual activity [18]: 65% | residual activity [19]: 100% | residual activity [20]: 66% | residual activity [21]: 40% | residual activity [22]: 59% | residual activity [23]: 23% | residual activity [24]: 98% | residual activity [25]: 83% | residual activity [26]: 88% | residual activity [27]: 91% | residual activity [28]: 100% | residual activity [29]: 100% | residual activity [30]: 63% | residual activity [31]: 86% | residual activity [32]: 100% | inhibition [33]: 21.3% | residual activity [34]: 92% | residual activity [35]: 100% | residual activity [36]: 77% | residual activity [37]: 100% | residual activity [38]: 100% | inhibition [39]: -8.44% | residual activity [40]: 94% | residual activity [41]: 98% | residual activity [42]: 100% | residual activity [43]: 99% | residual activity [44]: 92%
